We go through seven compounds from ChEMBL document CHEMBL5375979, “Chemical, Biochemical, Cellular, and Physiological Characterization of Leucettinib-21, a Down Syndrome and Alzheimer's Disease Drug Candidate” (J Med Chem, 2023).

As usually defined, the IC50 is the concentration that gives 50% inhibition.

The target in test [1] is Dual specificity protein kinase CLK1 (Homo sapiens, UniProt P49759).
Test [2] has as its target Dual specificity protein kinase CLK4 (Homo sapiens, UniProt Q9HAZ1).
In test [3] the target is Dual specificity tyrosine-phosphorylation-regulated kinase 1A (Homo sapiens, UniProt Q13627).
Test [4] deals with Dual specificity tyrosine-phosphorylation-regulated kinase 1B (Homo sapiens, UniProt Q9Y463).
The target of test [5] is Cyclin-dependent kinase 5 (Homo sapiens, UniProt Q00535).
Test [6] has as its target Casein kinase I. The format is protein assay, Homo sapiens.
The target in test [7] is Dual specificity protein kinase CLK2 (Homo sapiens, UniProt P49760).
For test [8], the target named is Dual specificity protein kinase CLK3 (Homo sapiens, UniProt P49761).
The target in test [9] is T1, Dual specificity tyrosine-phosphorylation-regulated kinase 2 (Homo sapiens, UniProt Q92630).
T1 sequence (Q92630 whole entry): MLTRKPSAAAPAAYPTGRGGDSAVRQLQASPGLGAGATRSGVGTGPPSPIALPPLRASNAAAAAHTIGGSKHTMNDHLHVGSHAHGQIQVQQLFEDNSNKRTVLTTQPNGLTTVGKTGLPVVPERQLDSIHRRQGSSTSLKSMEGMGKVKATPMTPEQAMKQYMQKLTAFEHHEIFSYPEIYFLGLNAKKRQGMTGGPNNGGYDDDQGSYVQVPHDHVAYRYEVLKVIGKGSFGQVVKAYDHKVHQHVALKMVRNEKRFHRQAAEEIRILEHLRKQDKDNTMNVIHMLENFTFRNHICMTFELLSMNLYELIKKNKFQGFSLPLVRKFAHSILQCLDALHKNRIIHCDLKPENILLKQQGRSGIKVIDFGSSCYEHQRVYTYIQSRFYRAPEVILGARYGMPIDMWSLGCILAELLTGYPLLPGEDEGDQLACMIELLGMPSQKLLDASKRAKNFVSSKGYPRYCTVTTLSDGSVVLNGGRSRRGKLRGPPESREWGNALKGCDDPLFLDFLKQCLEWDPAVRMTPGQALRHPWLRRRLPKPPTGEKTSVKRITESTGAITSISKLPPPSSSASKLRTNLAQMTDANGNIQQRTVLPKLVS

Test [10] deals with T2, Dual specificity tyrosine-phosphorylation-regulated kinase 3 (Homo sapiens, UniProt O43781).
T2 sequence (O43781 whole entry): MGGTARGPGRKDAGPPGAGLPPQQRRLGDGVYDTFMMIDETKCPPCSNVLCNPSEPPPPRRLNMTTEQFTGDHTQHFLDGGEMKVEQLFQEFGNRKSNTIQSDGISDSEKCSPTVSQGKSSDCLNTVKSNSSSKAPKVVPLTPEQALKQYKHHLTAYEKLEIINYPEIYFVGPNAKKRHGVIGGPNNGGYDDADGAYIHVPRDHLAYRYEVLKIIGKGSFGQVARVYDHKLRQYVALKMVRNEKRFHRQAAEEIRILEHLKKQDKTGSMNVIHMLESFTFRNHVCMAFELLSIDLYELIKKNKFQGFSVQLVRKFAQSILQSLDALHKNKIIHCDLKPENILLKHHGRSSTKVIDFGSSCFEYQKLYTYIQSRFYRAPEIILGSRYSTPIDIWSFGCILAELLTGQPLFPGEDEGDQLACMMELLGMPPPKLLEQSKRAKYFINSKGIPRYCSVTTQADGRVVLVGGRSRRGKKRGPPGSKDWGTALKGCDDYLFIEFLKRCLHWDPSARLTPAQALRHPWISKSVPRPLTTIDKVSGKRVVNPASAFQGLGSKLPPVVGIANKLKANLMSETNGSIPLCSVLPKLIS

Test [11] has as its target T3, Dual specificity tyrosine-phosphorylation-regulated kinase 4 (Homo sapiens, UniProt Q9NR20).
T3 sequence (Q9NR20 whole entry): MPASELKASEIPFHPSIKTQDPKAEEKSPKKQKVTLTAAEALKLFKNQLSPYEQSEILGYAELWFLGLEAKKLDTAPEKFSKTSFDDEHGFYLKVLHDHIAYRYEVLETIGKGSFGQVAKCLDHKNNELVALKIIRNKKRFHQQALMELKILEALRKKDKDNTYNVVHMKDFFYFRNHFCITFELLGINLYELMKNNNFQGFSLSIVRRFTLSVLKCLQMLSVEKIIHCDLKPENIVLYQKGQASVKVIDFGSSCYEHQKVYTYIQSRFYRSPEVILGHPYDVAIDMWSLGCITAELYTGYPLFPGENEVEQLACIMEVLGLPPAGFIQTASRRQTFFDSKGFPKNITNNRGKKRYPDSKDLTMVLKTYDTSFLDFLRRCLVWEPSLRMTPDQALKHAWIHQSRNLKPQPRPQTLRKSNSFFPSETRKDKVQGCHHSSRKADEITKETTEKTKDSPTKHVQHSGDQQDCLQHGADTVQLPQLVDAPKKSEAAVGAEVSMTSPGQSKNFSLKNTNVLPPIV

Test [12] concerns the target Glycogen synthase kinase-3 (Homo sapiens, UniProt P49840+P49841). The format is protein assay.

Some results are limits rather than exact numbers.

Cyclin-dependent kinase 5, sequence (Q00535 whole entry): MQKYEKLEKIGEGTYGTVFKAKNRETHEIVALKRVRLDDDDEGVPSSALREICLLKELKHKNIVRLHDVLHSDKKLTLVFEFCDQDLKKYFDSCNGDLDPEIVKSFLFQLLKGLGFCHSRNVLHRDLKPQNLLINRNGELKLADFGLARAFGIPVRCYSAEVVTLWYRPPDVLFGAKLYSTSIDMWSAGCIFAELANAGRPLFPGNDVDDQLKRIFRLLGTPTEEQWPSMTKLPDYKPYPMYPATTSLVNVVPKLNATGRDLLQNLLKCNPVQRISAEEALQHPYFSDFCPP
Dual specificity protein kinase CLK1, sequence (P49759 whole entry): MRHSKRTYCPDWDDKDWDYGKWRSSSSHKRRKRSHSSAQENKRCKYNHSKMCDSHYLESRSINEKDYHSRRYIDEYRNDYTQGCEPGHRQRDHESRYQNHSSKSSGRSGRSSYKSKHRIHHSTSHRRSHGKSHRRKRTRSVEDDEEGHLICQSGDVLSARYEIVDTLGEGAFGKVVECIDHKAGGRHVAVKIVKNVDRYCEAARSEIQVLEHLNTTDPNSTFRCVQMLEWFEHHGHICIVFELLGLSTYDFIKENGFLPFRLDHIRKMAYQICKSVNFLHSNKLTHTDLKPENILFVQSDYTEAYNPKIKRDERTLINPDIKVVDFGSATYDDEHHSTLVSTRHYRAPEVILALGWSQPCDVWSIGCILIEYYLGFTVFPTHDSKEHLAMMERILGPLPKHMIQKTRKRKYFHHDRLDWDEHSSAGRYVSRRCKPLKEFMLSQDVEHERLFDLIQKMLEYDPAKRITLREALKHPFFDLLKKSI
Dual specificity protein kinase CLK4, sequence (Q9HAZ1 whole entry): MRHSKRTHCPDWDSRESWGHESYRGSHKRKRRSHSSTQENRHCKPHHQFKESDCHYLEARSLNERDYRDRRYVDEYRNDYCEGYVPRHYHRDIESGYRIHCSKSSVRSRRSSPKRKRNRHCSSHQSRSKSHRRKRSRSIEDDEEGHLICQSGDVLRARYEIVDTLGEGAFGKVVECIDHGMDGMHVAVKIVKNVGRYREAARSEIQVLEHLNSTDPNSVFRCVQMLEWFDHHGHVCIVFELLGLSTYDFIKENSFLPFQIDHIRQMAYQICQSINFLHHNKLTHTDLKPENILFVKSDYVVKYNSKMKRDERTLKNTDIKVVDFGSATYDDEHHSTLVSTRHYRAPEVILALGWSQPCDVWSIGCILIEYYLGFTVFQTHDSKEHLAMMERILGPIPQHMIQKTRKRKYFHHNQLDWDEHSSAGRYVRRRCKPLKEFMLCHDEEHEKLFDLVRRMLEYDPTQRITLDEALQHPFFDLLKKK
Dual specificity tyrosine-phosphorylation-regulated kinase 1B, sequence (Q9Y463 whole entry): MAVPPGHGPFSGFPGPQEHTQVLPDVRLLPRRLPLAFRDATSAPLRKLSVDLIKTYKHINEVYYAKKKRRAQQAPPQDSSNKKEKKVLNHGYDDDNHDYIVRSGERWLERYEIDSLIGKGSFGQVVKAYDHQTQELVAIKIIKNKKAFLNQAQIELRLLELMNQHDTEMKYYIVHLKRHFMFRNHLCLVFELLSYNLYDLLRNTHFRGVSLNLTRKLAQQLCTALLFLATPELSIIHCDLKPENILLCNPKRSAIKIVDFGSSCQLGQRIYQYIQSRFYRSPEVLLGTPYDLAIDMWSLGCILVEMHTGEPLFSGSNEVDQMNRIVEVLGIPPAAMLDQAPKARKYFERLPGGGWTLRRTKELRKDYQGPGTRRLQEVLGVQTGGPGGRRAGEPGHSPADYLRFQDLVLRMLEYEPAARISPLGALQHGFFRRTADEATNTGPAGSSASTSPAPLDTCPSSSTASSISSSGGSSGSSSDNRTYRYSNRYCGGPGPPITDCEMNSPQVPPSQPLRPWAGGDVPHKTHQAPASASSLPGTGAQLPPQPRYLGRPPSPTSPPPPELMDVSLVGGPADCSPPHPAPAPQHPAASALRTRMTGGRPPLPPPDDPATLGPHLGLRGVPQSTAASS
Dual specificity protein kinase CLK3, sequence (P49761 whole entry): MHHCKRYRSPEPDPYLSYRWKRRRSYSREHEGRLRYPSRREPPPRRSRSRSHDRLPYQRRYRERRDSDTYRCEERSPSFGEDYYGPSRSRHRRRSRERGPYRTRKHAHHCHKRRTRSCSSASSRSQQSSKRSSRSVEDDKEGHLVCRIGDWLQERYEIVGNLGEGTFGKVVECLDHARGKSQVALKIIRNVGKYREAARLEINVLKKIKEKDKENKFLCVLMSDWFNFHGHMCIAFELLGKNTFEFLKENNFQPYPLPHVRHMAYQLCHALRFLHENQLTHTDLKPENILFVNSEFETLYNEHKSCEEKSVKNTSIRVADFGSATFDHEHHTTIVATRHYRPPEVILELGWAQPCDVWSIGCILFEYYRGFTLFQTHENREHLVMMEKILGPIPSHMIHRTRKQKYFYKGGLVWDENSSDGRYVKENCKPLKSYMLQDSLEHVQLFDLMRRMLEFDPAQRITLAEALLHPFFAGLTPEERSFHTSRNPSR
Dual specificity protein kinase CLK2, sequence (P49760 whole entry): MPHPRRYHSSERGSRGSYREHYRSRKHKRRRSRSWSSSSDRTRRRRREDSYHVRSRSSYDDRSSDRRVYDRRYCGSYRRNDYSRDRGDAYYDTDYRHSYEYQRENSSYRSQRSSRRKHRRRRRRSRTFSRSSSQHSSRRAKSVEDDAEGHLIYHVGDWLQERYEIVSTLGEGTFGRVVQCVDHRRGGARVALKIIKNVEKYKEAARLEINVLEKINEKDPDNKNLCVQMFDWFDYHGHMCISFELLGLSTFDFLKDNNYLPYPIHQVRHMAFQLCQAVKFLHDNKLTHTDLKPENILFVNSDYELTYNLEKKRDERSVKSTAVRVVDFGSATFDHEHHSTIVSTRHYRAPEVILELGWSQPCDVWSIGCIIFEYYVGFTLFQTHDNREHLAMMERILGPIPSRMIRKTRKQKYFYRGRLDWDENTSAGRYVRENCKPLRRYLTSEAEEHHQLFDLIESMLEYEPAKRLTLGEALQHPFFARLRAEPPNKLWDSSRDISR

Take `COC[C@@H](CC(C)C)NC1=N/C(=C\c2ccc3ncsc3c2)C(=O)N1C1CCCC1`: the IC50 in [1] was 2.45 µM; in [2], 1.01 µM; in [3], > 10 µM; in test [4], > 10 µM; in test [5] it was > 10 µM; in test [6], > 10 µM. Also, the IC50 in [7] was 6.47 µM; in test [8], 5.32 µM; in test [9] it was 0.774 µM; in [10], > 10 µM; in [11], > 10 µM; in test [12], > 10 µM.
On to `CC(C)C[C@H](CO)NC1=N/C(=C\c2ccc3ncsc3c2)C(=O)N1`, for which the IC50 in test [1] is 0.0139 µM; in test [5] it was > 10 µM; in [6] it was > 10 µM; in test [8], 0.461 µM; in [9], 0.635 µM; in [10], 0.31 µM. Moreover, the results for the 50% inhibitory concentration (IC50) in test [11] and in [12] were 0.51 µM and 2.32 µM, respectively.
For `COC[C@@H](CC(C)C)NC1=N/C(=C\c2cnc3ncsc3c2)C(=O)N1`, the IC50 in test [1], in [2], in test [5], in test [6], in test [7] and in test [8] was > 10 µM in each case. For the same compound, the IC50 in test [9], in [11] and in [12] was > 10 µM in each case.
On to `COC[C@@H](CC(C)C)NC1=N/C(=C\c2cc3scnc3cn2)C(=O)N1`, for which the IC50 is > 10 µM in test [1]; 6.49 µM in test [2]; > 10 µM in test [5]; > 10 µM in test [6]; > 10 µM in test [7]; > 10 µM in [8]. Also, the IC50 in test [10], in [11] and in test [12] was > 10 µM in each case.
Turning to `COC[C@@H](CC(C)C)NC1=N/C(=C\c2ccc3ncsc3c2)C(=O)N1C1CCCCC1`, the IC50 in [1] is > 10 µM; in test [2], 4.91 µM; in test [4], > 10 µM; in [5], > 10 µM; in test [6] it was > 10 µM; in [7], > 10 µM. In addition, the IC50 in [8] was > 10 µM; in [9], 3.97 µM; in [11], > 10 µM; in test [12], > 10 µM.
Take `COC[C@@H](CC(C)C)NC1=N/C(=C\c2ccc3ncsc3n2)C(=O)N1`: the IC50 in [1] was 0.0336 µM; in test [2], 0.0264 µM; in test [3], 0.0365 µM; in test [4], 0.085 µM; in test [5], > 10 µM; in test [6] it was > 10 µM. In addition, the IC50 in test [8] came to 0.219 µM; in [9] it was 4.36 µM; in test [10], 1.38 µM; in test [11], 4.78 µM; in [12] it was 4.27 µM.
Consider `COC[C@@H](CC(C)C)NC1=N/C(=C\c2ccc3ncsc3c2)C(=O)N1C1CC1`, for which the IC50 in [2] is 0.24 µM; in test [3], 0.506 µM; in [5], > 10 µM; in [6], > 10 µM; in [7], 0.643 µM; in [8], 1.26 µM. Moreover, the IC50 is 0.842 µM in test [10], 2.86 µM in [11] and 8.988 µM in [12].
